Reference: article PMC7504751, “Potential of 2-Chloro-N-(4-fluoro-3-nitrophenyl)acetamide Against Klebsiella pneumoniae and In Vitro Toxicity Analysis” (Molecules, 2020)
Converted amounts (≈) assume the structure as drawn. Like-named read-outs stand apart in the source and are kept apart here.

Legend:
[1] = system: K. pneumoniae (ATCC-700603 and KP-56); experiment: Time-kill kinetics; type: cell-based, Klebsiella pneumoniae
Description: The determination of the action time of A2 substance against K. pneumoniae (ATCC-700603 and KP-56) was carried out exposing the microorganisms to concentrations equivalent to MIC and 2× MIC during times 0, 2, 4, 6, 8, 10, and 24 h. After incubation on Mueller–Hinton agar, bacterial colonies were counted. Bactericidal activity was defined as a ≥3-log reduction in bacterial counts (log10 CFU/mL).

K. pneumoniae strains = experiment: Minimum inhibitory concentration (MIC), broth microdilution; type: cell-based, Klebsiella pneumoniae
Description: The clinical isolates strains of K. pneumoniae were used in this study belong to the MICOTECA of the Antibacterial and Antifungal Activity Research Laboratory of the Federal University of Paraíba, Brazil, which are: KP-25, KP-26, KP-56, KP-83, KP-87, KP-138, KP-143, KP-166, KP-173, KP-176, KP-260, and KP-326. The American Type Culture Collection strain ATCC-700603 was used as controls. For use in the assays, bacterial suspensions were prepared in 0.9% saline solution, from fresh cultures, and adjusted to the McFarland standard 0.5 scale.
To assess the antibacterial activity of substances A1 and A2, the minimum inhibitory concentration against K. pneumoniae strains was determined. The substances were solubilized in dimethyl sulfoxide (DMSO) at 5% and Tween-80 at 2%, to obtain emulsions in the concentrations necessary for use in the tests. The MIC determination was performed using the broth microdilution technique in a 96-well plate to obtain different concentrations of A1 and A2 [35]. In parallel, controls for sterility, cell viability, and interference of the vehicles used in the preparation of substance emulsions (DMSO and Tween-80) were also performed. MIC is defined as the lowest concentration capable of causing complete inhibition of bacterial growth after 24 h at 35 ± 2 °C.

oral mucosa cells = experiment: Genotoxic effects on oral mucosa cells; type: cell-based, human; conditions: for Binucleation / Karyolysis / Karyorrhexis / Micronucleus / Normal: 30 min ex vivo
Description: The tests were performed according to the recommendations established by the Code of Ethics of the World Medical Association, after approval by the ethics committee of the Centro Universitário de Patos (number: 3621284). Blood samples (types A, B, and O) and smears of oral mucosa were donated by young, healthy adults. First, the oral mucosa cells were collected from the donors, which was done with a cyto-brush (smear collector) in the cheek area, and the material obtained was placed in 5 mL of 0.9% NaCl. As controls, cells treated with hydrogen peroxide −0.0005% (positive control) and untreated cells (negative control) were used. The cells were washed twice with saline and centrifuged for 10 min at 400× g and kept in saline. After the third wash, the cells were exposed (ex vivo) to A2 substance at 50, 100, 500, and 1000 µg/mL concentrations for 30 min. The material was centrifuged and the supernatant was discarded before smear preparation. The cells were homogenized in a vortex and placed on the slides at room temperature for drying for 15 min. Then, they were fixed with methanol: acetic acid (3:1) for 15 min and stained with 2% Giemsa.

K. pneumoniae = experiment: Effect on bacterial cell integrity (release of 260 nm absorbing material); type: cell-based, Klebsiella pneumoniae; conditions: compared to negative control, p ≤ 0.0001
Description: The cell integrity can be assessed by releasing intracellular material, mainly nucleotides, which absorb 260 nm wavelengths. The K pneumoniae strains ATCC-700603, KP-26, KP-56, and KP-143 were used to perform this test. First, the bacterial inoculum was incubated in BHI broth (1 × 10^7 CFU/mL) overnight at 35 ± 2 °C. Then, centrifugation was performed at 400× g for 10 min. The cell pellet was washed three times with sterile PBS (phosphate-buffered saline) and resuspended in PBS containing the A2 substance at MIC and 2× MIC concentrations. As a negative control, suspensions that underwent the same procedures, but without treatment with the substance, were used. The tubes corresponding to the MIC were incubated for 10 h at 35 ± 2 °C, and the tubes corresponding to the 2× MIC, for 6 h. After incubation, the suspensions were centrifuged at 400× g for 10 min and the supernatants were read on a spectrophotometer at 260 nm. All analyses were performed in triplicate.

[2] = system: red blood cells (RBC) of the ABO system; experiment: Antihemolytic activity (osmotic fragility); type: cell-based, human; conditions: 0.24% NaCl
Description: The tests were performed according to the recommendations established by the Code of Ethics of the World Medical Association, after approval by the ethics committee of the Centro Universitário de Patos (number: 3621284). Blood samples (types A, B, and O) and smears of oral mucosa were donated by young, healthy adults.
The analysis of the osmotic fragility of the red cells was performed using previously prepared red blood cell suspensions at 0.5%. Different concentrations (50, 100, 500, and 1000 µg/mL) of the A2 substance were used for the treatment of 0.5% RBC suspensions for 1h at 22 ± 2 °C. The samples were centrifuged at 2500 rpm for 5 min and the supernatant was discarded. The erythrocytes were resuspended in a hypotonic solution of 0.24% sodium chloride for one hour at 22 ± 2 °C. After this period, the samples were centrifuged at 700× g for 5 min and the hemolysis of the supernatant was quantified by spectrophotometry at 540 nm. As controls, a suspension of untreated red blood cells was used as a negative control (0% hemolysis) and in a hypotonic solution as a positive control (100% hemolysis).

SMILES: O=C(CCl)Nc1ccc(F)c([N+](=O)[O-])c1 [A2, 2-chloro-N-(4-fluoro-3-nitrophenyl)acetamide]
- time of treatment to total reduction of viable cells ([1]; A2 at 2× MIC): 6 h
- time of treatment to total reduction of viable cells ([1]; A2 at MIC): 10 h
- MIC (K. pneumoniae strains; Klebsiella pneumoniae, ATCC700603, strain ATCC-700603, 24 h at 35 ± 2 °C, read-out: MIC): 512 µg/mL (≈ 2200 µM)
- MIC (K. pneumoniae strains; Klebsiella pneumoniae, 100% of the K. pneumoniae strains used in this study, read-out: MIC): 512 µg/mL (≈ 2200 µM)
- MIC (K. pneumoniae strains; Klebsiella pneumoniae, strain KP-138, 24 h at 35 ± 2 °C, read-out: MIC): 512 µg/mL (≈ 2200 µM)
- MIC (K. pneumoniae strains; strain KP-25, 24 h at 35 ± 2 °C): 512 µg/mL (≈ 2200 µM)
- MIC (K. pneumoniae strains; strain KP-26, 24 h at 35 ± 2 °C): 512 µg/mL (≈ 2200 µM)
- MIC (K. pneumoniae strains; strain KP-56, 24 h at 35 ± 2 °C): 512 µg/mL (≈ 2200 µM)
- MIC (K. pneumoniae strains; strain KP-83, 24 h at 35 ± 2 °C): 512 µg/mL (≈ 2200 µM)
- MIC (K. pneumoniae strains; strain KP-87, 24 h at 35 ± 2 °C): 512 µg/mL (≈ 2200 µM)
- MIC (K. pneumoniae strains; strain KP-143, 24 h at 35 ± 2 °C): 512 µg/mL (≈ 2200 µM)
- MIC (K. pneumoniae strains; strain KP-166, 24 h at 35 ± 2 °C): 512 µg/mL (≈ 2200 µM)
- MIC (K. pneumoniae strains; strain KP-173, 24 h at 35 ± 2 °C): 512 µg/mL (≈ 2200 µM)
- MIC (K. pneumoniae strains; strain KP-176, 24 h at 35 ± 2 °C): 512 µg/mL (≈ 2200 µM)
- MIC (K. pneumoniae strains; strain KP-260, 24 h at 35 ± 2 °C): 512 µg/mL (≈ 2200 µM)
- MIC (K. pneumoniae strains; strain KP-326, 24 h at 35 ± 2 °C): 512 µg/mL (≈ 2200 µM)
- melting point: 91 to 93 °C
- Binucleation (oral mucosa cells; 50 µg/mL): 0.00%
- Karyolysis (oral mucosa cells; 50 µg/mL): 1.00%
- Karyorrhexis (oral mucosa cells; 50 µg/mL): 1.00%
- Micronucleus (oral mucosa cells; 50 µg/mL): 0.50%
- Normal (oral mucosa cells; 50 µg/mL): 97.50%
- Binucleation (oral mucosa cells; 100 µg/mL): 0.00%
- Karyolysis (oral mucosa cells; 100 µg/mL): 3.00%
- Karyorrhexis (oral mucosa cells; 100 µg/mL): 4.00%
- Micronucleus (oral mucosa cells; 100 µg/mL): 0.50%
- Normal (oral mucosa cells; 100 µg/mL): 92.50%
- Binucleation (oral mucosa cells; 500 µg/mL): 0.50%
- Karyolysis (oral mucosa cells; 500 µg/mL): 4.00%
- Karyorrhexis (oral mucosa cells; 500 µg/mL): 5.00%
- Micronucleus (oral mucosa cells; 500 µg/mL): 0.70%
- Normal (oral mucosa cells; 500 µg/mL): 86.80%
- Binucleation (oral mucosa cells; 1000 µg/mL): 0.50%
- Karyolysis (oral mucosa cells; 1000 µg/mL): 5.00%
- Karyorrhexis (oral mucosa cells; 1000 µg/mL): 7.00%
- Micronucleus (oral mucosa cells; 1000 µg/mL): 2.00%
- Normal (oral mucosa cells; 1000 µg/mL): 83.50%
- normal cells (oral mucosa cells; all tested concentrations (50–1000 µg/mL)): greater than 80%
- release of 260 nm absorbing material (cell lysis) (K. pneumoniae; 2× MIC, six hours): Cell lysis is also evident
- release of 260 nm absorbing material (cytoplasmic contents) (K. pneumoniae; MIC, 10 h of treatment): significant release of cytoplasmic contents
- percentage of hemolysis in hypotonic solution (anti-hemolytic evaluation) ([2]; 1000 µg/mL, type B red blood cells): > 80%
- percentage of hemolysis in hypotonic solution (anti-hemolytic evaluation), class ([2]; all concentrations (50–1000 µg/mL), three ABO blood types, except 1000 µg/mL in type B): moderate (moderate (40% and 80%))
